Reference: ChEMBL document CHEMBL6103552, “Identification of peptide-based hepatitis B virus capsid inhibitors based on the viral core protein” (Bioorg Med Chem Lett, 2025)
Calls of active or inactive are those of the source. The rule behind the calls is not given here. Residues, ends and D or L forms follow the SMILES beside them.

Target: Core antigen (Hepatitis B virus) (UniProt Q03732)
Assay: Inhibition of Hepatitis B virus capsid formation at 100 uM treated during cell-free wild type HBV Cp synthesis using wheat germ lysates and HBV Cp RNA by Native capsid assay based western blot analysis
Format: subcellular

Core antigen (Hepatitis B virus), sequence (Q03732 as listed by the source): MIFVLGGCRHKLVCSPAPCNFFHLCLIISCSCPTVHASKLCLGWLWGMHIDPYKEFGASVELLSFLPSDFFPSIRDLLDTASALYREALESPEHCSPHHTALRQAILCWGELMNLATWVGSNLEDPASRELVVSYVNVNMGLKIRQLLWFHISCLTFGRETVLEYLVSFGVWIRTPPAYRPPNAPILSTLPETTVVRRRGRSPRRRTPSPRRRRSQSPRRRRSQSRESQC

SMILES	inhibition
CC(=O)N[C@@H](CC(C)C)C(=O)N[C@@H](CCC(=O)O)C(=O)N[C@@H](CC(=O)O)C(=O)N1CCC[C@H]1C(=O)N[C@@H](C)C(=O)N[C@@H](CO)C(=O)N[C@@H](CCCNC(=N)N)C(=O)N[C@@H](CCC(=O)O)C(=O)N[C@@H](CC(C)C)C(=O)N[C@H](C(=O)N[C@H](C(=O)N[C@@H](CO)C(=O)N[C@@H](Cc1ccc(O)cc1)C(=O)N[C@H](C(=O)N[C@@H](CC(N)=O)C(N)=O)C(C)C)C(C)C)C(C)C	inactive
CC(=O)N[C@@H](CO)C(=O)N[C@H](C(=O)N[C@@H](CC(C)C)C(=O)N1CCC[C@H]1C(=O)N[C@@H](CCC(=O)O)C(=O)N[C@H](C(=O)N[C@H](C(=O)N[C@H](C(=O)N[C@H](C(=O)N[C@@H](CCCNC(=N)N)C(=O)N[C@@H](CCCNC(=N)N)C(=O)N[C@@H](CCCNC(=N)N)C(=O)NCC(=O)N[C@@H](CCCNC(=N)N)C(=O)N[C@@H](CO)C(N)=O)C(C)C)C(C)C)[C@@H](C)O)[C@@H](C)O)[C@@H](C)O	inactive
CC(=O)N[C@@H](Cc1c[nH]c2ccccc12)C(=O)N[C@H](C(=O)NCC(=O)N[C@@H](CO)C(=O)N[C@@H](CC(N)=O)C(=O)N[C@@H](CC(C)C)C(=O)N[C@@H](CCC(=O)O)C(=O)N[C@@H](CC(=O)O)C(=O)N1CCC[C@H]1C(=O)N[C@@H](C)C(=O)N[C@@H](CO)C(=O)N[C@@H](CCCNC(=N)N)C(=O)N[C@@H](CCC(=O)O)C(=O)N[C@@H](CC(C)C)C(=O)N[C@H](C(N)=O)C(C)C)C(C)C	inactive
CC[C@H](C)[C@H](NC(=O)[C@@H]1CCCN1C(=O)[C@H](C)NC(=O)[C@H](CC(N)=O)NC(C)=O)C(=O)N[C@@H](CC(C)C)C(=O)N[C@@H](CO)C(=O)N[C@H](C(=O)N[C@@H](CC(C)C)C(=O)N1CCC[C@H]1C(=O)N[C@@H](CCC(=O)O)C(=O)N[C@H](C(=O)N[C@H](C(=O)N[C@H](C(=O)N[C@H](C(=O)N[C@@H](CCCNC(=N)N)C(N)=O)C(C)C)C(C)C)[C@@H](C)O)[C@@H](C)O)[C@@H](C)O	inactive
CC[C@H](C)[C@H](NC(=O)[C@H](C)NC(=O)[C@H](CCC(N)=O)NC(=O)[C@@H]1CCCN1C(C)=O)C(=O)N[C@@H](CC(C)C)C(=O)N[C@@H](CS)C(=O)N[C@@H](Cc1c[nH]c2ccccc12)C(=O)NCC(=O)N[C@@H](CCC(=O)O)C(=O)N[C@@H](CC(C)C)C(=O)N[C@@H](CCSC)C(=O)N[C@@H](CC(N)=O)C(=O)N[C@@H](CC(C)C)C(=O)N[C@@H](C)C(=O)N[C@H](C(N)=O)[C@@H](C)O	inactive
CC[C@H](C)[C@H](NC(=O)[C@H](CO)NC(C)=O)C(=O)N[C@@H](CCCNC(=N)N)C(=O)N[C@@H](CC(=O)O)C(=O)N[C@@H](CC(C)C)C(=O)N[C@@H](CC(C)C)C(=O)N[C@@H](CC(=O)O)C(=O)N[C@H](C(=O)N[C@@H](C)C(=O)N[C@@H](CO)C(=O)N[C@@H](C)C(=O)N[C@@H](CC(C)C)C(=O)N[C@@H](Cc1ccc(O)cc1)C(=O)N[C@@H](CCCNC(=N)N)C(=O)N[C@@H](CCC(=O)O)C(N)=O)[C@@H](C)O	inactive
CC[C@H](C)[C@H](NC(=O)[C@H](Cc1c[nH]c2ccccc12)NC(=O)[C@@H](NC(=O)CNC(=O)[C@H](Cc1ccccc1)NC(=O)[C@H](CO)NC(C)=O)C(C)C)C(=O)N[C@@H](CCCNC(=N)N)C(=O)N[C@H](C(=O)N1CCC[C@H]1C(=O)N1CCC[C@H]1C(=O)N[C@@H](C)C(=O)N[C@@H](Cc1ccc(O)cc1)C(=O)N[C@@H](CCCNC(=N)N)C(=O)N1CCC[C@H]1C(=O)N1CCC[C@H]1C(N)=O)[C@@H](C)O	inactive
CSCC[C@H](NC(=O)[C@H](CC(C)C)NC(=O)[C@H](CCC(=O)O)NC(=O)CNC(=O)[C@H](Cc1c[nH]c2ccccc12)NC(=O)[C@H](CS)NC(C)=O)C(=O)N[C@@H](CC(N)=O)C(=O)N[C@@H](CC(C)C)C(=O)N[C@@H](C)C(=O)N[C@H](C(=O)N[C@@H](Cc1c[nH]c2ccccc12)C(=O)N[C@H](C(=O)NCC(=O)N[C@@H](CO)C(=O)N[C@@H](CC(N)=O)C(N)=O)C(C)C)[C@@H](C)O	inactive
CSCC[C@H](NC(=O)[C@H](CC(N)=O)NC(=O)[C@@H](NC(=O)[C@H](CC(N)=O)NC(=O)[C@@H](NC(=O)[C@H](Cc1ccc(O)cc1)NC(=O)[C@H](CO)NC(=O)[C@@H](NC(=O)[C@@H](NC(=O)[C@H](CC(C)C)NC(=O)[C@H](CCC(=O)O)NC(=O)[C@H](CCCNC(=N)N)NC(=O)[C@H](CO)NC(C)=O)C(C)C)C(C)C)C(C)C)C(C)C)C(=O)NCC(=O)N[C@@H](CC(C)C)C(N)=O	inactive
CSCC[C@H](NC(C)=O)C(=O)N[C@@H](CC(N)=O)C(=O)N[C@@H](CC(C)C)C(=O)N[C@@H](C)C(=O)N[C@H](C(=O)N[C@@H](Cc1c[nH]c2ccccc12)C(=O)N[C@H](C(=O)NCC(=O)N[C@@H](CO)C(=O)N[C@@H](CC(N)=O)C(=O)N[C@@H](CC(C)C)C(=O)N[C@@H](CCC(=O)O)C(=O)N[C@@H](CC(=O)O)C(=O)N1CCC[C@H]1C(=O)N[C@@H](C)C(N)=O)C(C)C)[C@@H](C)O	inactive
CC(=O)N[C@@H](C)C(=O)N[C@@H](CC(C)C)C(=O)N[C@@H](CCC(=O)O)C(=O)N[C@@H](CO)C(=O)N1CCC[C@H]1C(=O)N[C@@H](CCC(=O)O)C(=O)N[C@@H](Cc1c[nH]cn1)C(=O)N[C@@H](CS)C(=O)N[C@@H](CO)C(=O)N1CCC[C@H]1C(=O)N[C@@H](Cc1c[nH]cn1)C(=O)N[C@@H](Cc1c[nH]cn1)C(=O)N[C@H](C(=O)N[C@@H](C)C(=O)N[C@@H](CC(C)C)C(N)=O)[C@@H](C)O (Ac-ALESPEHCSPHHTAL-NH2)	inactive
CC(=O)N[C@@H](C)C(=O)N[C@@H](CC(C)C)C(=O)N[C@@H](Cc1ccc(O)cc1)C(=O)N[C@@H](CCCNC(=N)N)C(=O)N[C@@H](CCC(=O)O)C(=O)N[C@@H](C)C(=O)N[C@@H](CC(C)C)C(=O)N[C@@H](CCC(=O)O)C(=O)N[C@@H](CO)C(=O)N1CCC[C@H]1C(=O)N[C@@H](CCC(=O)O)C(=O)N[C@@H](Cc1c[nH]cn1)C(=O)N[C@@H](CS)C(=O)N[C@@H](CO)C(=O)N1CCC[C@H]1C(N)=O (Ac-ALYREALESPEHCSP-NH2)	inactive
CC[C@H](C)[C@H](NC(=O)[C@@H]1CCCN1C(=O)[C@H](C)NC(=O)[C@H](CC(N)=O)NC(=O)[C@@H]1CCCN1C(=O)[C@@H]1CCCN1C(=O)[C@H](CCCNC(=N)N)NC(=O)[C@H](Cc1ccc(O)cc1)NC(=O)[C@H](C)NC(C)=O)C(=O)N[C@@H](CC(C)C)C(=O)N[C@@H](CO)C(=O)N[C@H](C(=O)N[C@@H](CC(C)C)C(=O)N1CCC[C@H]1C(=O)N[C@@H](CCC(=O)O)C(N)=O)[C@@H](C)O (Ac-AYRPPNAPILSTLPE-NH2)	inactive
CC[C@H](C)[C@H](NC(=O)[C@H](C)NC(=O)[C@H](CCC(N)=O)NC(=O)[C@@H]1CCCN1C(=O)[C@H](CC(C)C)NC(=O)[C@H](C)NC(=O)[C@@H](NC(=O)[C@H](Cc1c[nH]cn1)NC(=O)[C@H](Cc1c[nH]cn1)NC(=O)[C@@H]1CCCN1C(=O)[C@H](CO)NC(=O)[C@H](CS)NC(=O)[C@H](Cc1c[nH]cn1)NC(=O)[C@H](CCC(=O)O)NC(C)=O)[C@@H](C)O)C(=O)N[C@@H](CC(C)C)C(N)=O (Ac-EHCSPHHTALPQAIL-NH2)	inactive
CC(=O)NCC(=O)N[C@@H](CCCNC(=N)N)C(=O)N[C@@H](CCC(=O)O)C(=O)N[C@H](C(=O)N[C@H](C(=O)N[C@@H](CC(C)C)C(=O)N[C@@H](CCC(=O)O)C(=O)N[C@@H](Cc1ccc(O)cc1)C(=O)N[C@@H](CC(C)C)C(=O)N[C@H](C(=O)N[C@@H](CO)C(=O)N[C@@H](Cc1ccccc1)C(=O)NCC(=O)N[C@H](C(=O)N[C@@H](Cc1c[nH]c2ccccc12)C(N)=O)C(C)C)C(C)C)C(C)C)[C@@H](C)O (Ac-GRETVLEYLVSFGVW-NH2)	inactive
CC[C@H](C)[C@H](NC(=O)[C@H](C)NC(=O)[C@H](CCC(N)=O)NC(=O)[C@@H]1CCCN1C(=O)[C@H](CC(C)C)NC(=O)[C@H](C)NC(=O)[C@@H](NC(=O)[C@H](Cc1c[nH]cn1)NC(=O)[C@H](Cc1c[nH]cn1)NC(C)=O)[C@@H](C)O)C(=O)N[C@@H](CC(C)C)C(=O)N[C@@H](CS)C(=O)N[C@@H](Cc1c[nH]c2ccccc12)C(=O)NCC(=O)N[C@@H](CCC(=O)O)C(=O)N[C@@H](CC(C)C)C(N)=O (Ac-HHTALPQAILCWGEL-NH2)	inactive
CC[C@H](C)[C@H](NC(C)=O)C(=O)N[C@@H](CCCNC(=N)N)C(=O)N[C@H](C(=O)N1CCC[C@H]1C(=O)N1CCC[C@H]1C(=O)N[C@@H](C)C(=O)N[C@@H](Cc1ccc(O)cc1)C(=O)N[C@@H](CCCNC(=N)N)C(=O)N1CCC[C@H]1C(=O)N1CCC[C@H]1C(=O)N[C@@H](CC(N)=O)C(=O)N[C@@H](C)C(=O)N1CCC[C@H]1C(=O)N[C@H](C(=O)N[C@@H](CC(C)C)C(N)=O)[C@@H](C)CC)[C@@H](C)O (Ac-IRTPPAYRPPNAPIL-NH2)	inactive
CC(=O)N[C@@H](CC(C)C)C(=O)N[C@@H](CC(=O)O)C(=O)N[C@H](C(=O)N[C@@H](C)C(=O)N[C@@H](CO)C(=O)N[C@@H](C)C(=O)N[C@@H](CC(C)C)C(=O)N[C@@H](Cc1ccc(O)cc1)C(=O)N[C@@H](CCCNC(=N)N)C(=O)N[C@@H](CCC(=O)O)C(=O)N[C@@H](C)C(=O)N[C@@H](CC(C)C)C(=O)N[C@@H](CCC(=O)O)C(=O)N[C@@H](CO)C(=O)N1CCC[C@H]1C(N)=O)[C@@H](C)O (Ac-LDTASALYREALESP-NH2)	inactive
CC[C@H](C)[C@H](NC(=O)[C@H](Cc1c[nH]c2ccccc12)NC(=O)[C@@H](NC(=O)CNC(=O)[C@H](Cc1ccccc1)NC(=O)[C@H](CO)NC(=O)[C@@H](NC(=O)[C@H](CC(C)C)NC(=O)[C@H](Cc1ccc(O)cc1)NC(=O)[C@H](CCC(=O)O)NC(=O)[C@H](CC(C)C)NC(C)=O)C(C)C)C(C)C)C(=O)N[C@@H](CCCNC(=N)N)C(=O)N[C@H](C(=O)N1CCC[C@H]1C(=O)N1CCC[C@H]1C(N)=O)[C@@H](C)O (Ac-LEYLVSFGVWIRTPP-NH2)	inactive
CC[C@H](C)[C@H](NC(=O)[C@H](Cc1c[nH]cn1)NC(=O)[C@H](Cc1ccccc1)NC(=O)[C@H](Cc1c[nH]c2ccccc12)NC(=O)[C@H](CC(C)C)NC(C)=O)C(=O)N[C@@H](CO)C(=O)N[C@@H](CS)C(=O)N[C@@H](CC(C)C)C(=O)N[C@H](C(=O)N[C@@H](Cc1ccccc1)C(=O)NCC(=O)N[C@@H](CCCNC(=N)N)C(=O)N[C@@H](CCC(=O)O)C(=O)N[C@H](C(=O)N[C@H](C(N)=O)C(C)C)[C@@H](C)O)[C@@H](C)O (Ac-LWFHISCLTFGRETV-NH2)	inactive
